Drawing on ChEMBL document CHEMBL4354851, “Aggregation-Induced Emission Photosensitizers: From Molecular Design to Photodynamic Therapy” (2020), this text covers Activity for four compounds.

Test [1] can be described thus: Induction of […] generation assessed as bleaching rate of ABDA under white light irradiation relative to control. Format: functional.
The next test concerns HeLa. Nature of the test: Photodynamic activity in human HeLa cells assessed as light dose required to kill 50% of cells by fluorescein diacetate and propidium iodide dye based fluorescence assay. Type of test: functional.

In the case of `O=C(O)c1c(Cl)c(Cl)c(Cl)c(Cl)c1-c1c2cc(I)c(=O)c(I)c-2oc2c(I)c(O)c(I)cc12`, the Activity in test [1] was determined as 55.6%.
Same read-out and setting: with `C=Cc1c(C)c2cc3nc(c(CC(=O)O)c4[nH]c(cc5nc(cc1[nH]2)C(C)=C5CC)c(C)c4C(=O)O)C(CCC(=O)O)C3C` (centres undefined) the figure was 16.7%.
The same measure, in the same setting: the same measure for `Cc1ccc(N(c2ccc(C)cc2)c2ccc(-c3ccc(/C=C/c4cc[n+](C)cc4)s3)cc2)cc1`: 90.7%.
With `CCC[n+]1cc2ccc(-c3ccc(N(c4ccccc4)c4ccccc4)cc3)cc2c(-c2ccccc2)c1-c1ccccc1.F[B-](F)(F)F`, the Activity in the test on HeLa was 3.7 kJ/cm2.
